Here are results for eight compounds from US10336691B2, “Pesticidally active oxime and hydrazone derivatives” (Syngenta Participations AG, priority 2015, dated 2019).

Structures are written as SMILES. Like-named read-outs stand apart in the source and are kept apart here.

One data set deals with Diabrotica balteata. In words: Diabrotica balteata (corn root worm) maize sprout spray test, L2 larvae. Format: in vivo. The settings on record: 96 h, read-out: effect in at least one of the two categories (mortality or growth inhibition); for percent effect (mortality or growth inhibition) at 200 ppm: application rate of 200 ppm, 4 days after infestation, in comparison to untreated samples. The method, then:
Diabrotica balteata (Corn Root Worm)
Maize sprouts, placed on an agar layer in 24-well microtiter plates were treated with aqueous test solutions prepared from 10,000 ppm DMSO stock solutions by spraying. After drying, the plates were infested with L2 larvae (6 to 10 per well). The samples were assessed for mortality and growth inhibition in comparison to untreated samples 4 days after infestation.

Another data set deals with Plutella xylostella. The data set is described as follows: Plutella xylostella (diamond back moth) artificial diet test, L2 larvae. Format: in vivo. To be noted: 120 h, read-out: effect in at least one of the two categories (mortality or growth inhibition); for percent effect (mortality or growth inhibition) at 200 ppm: application rate of 200 ppm, 5 days after infestation, in comparison to untreated samples. The method, then:
Plutella xylostella (Diamond Back Moth)
24-well microtiter plates with artificial diet were treated with aqueous test solutions prepared from 10,000 ppm DMSO stock solutions by pipetting. After drying, the plates were infested with L2 larvae (10 to 15 per well). The samples were assessed for mortality and growth inhibition in comparison to untreated samples 5 days after infestation.

In another data set the test system is Spodoptera littoralis. The data set is described as follows: Spodoptera littoralis (Egyptian cotton leaf worm) cotton leaf disc spray test, L1 larvae. It is filed as in vivo. The settings on record: foliar, 72 h, read-out: control (at least one of mortality, anti-feedant effect, and growth inhibition). The method, then: Spodoptera littoralis (Egyptian Cotton Leaf Worm)
Cotton leaf discs were placed on agar in 24-well microtiter plates and sprayed with aqueous test solutions prepared from 10,000 ppm DMSO stock solutions. After drying, the leaf discs were infested with five L1 larvae. The samples were assessed for mortality, anti-feedant effect, and growth inhibition in comparison to untreated samples 3 days after infestation. Control of Spodoptera littoralis by a test sample is when at least one of mortality, anti-feedant effect, and growth inhibition is higher than the untreated sample.

The mark [1] stands for this setting: application rate of 200 ppm, 3 days after infestation, in comparison to untreated samples.

On to `C/C(=N\Nc1ccc(/C=N/NC(=O)Nc2c(C)cccc2C)cc1)c1ccccc1OC(F)(F)F`, for which the melting point (usually the temperature, or range, at which the solid turns liquid) is 215 to 224 °C.

For `CC/C(=N\Nc1ccc(/C=N/NC(=S)Nc2c(C)cccc2C)cc1)c1ccc(C(F)(F)F)cc1` [Compound 28, 1-(2,6-dimethylphenyl)-3-[(E)-[4-[(2E)-2-[1-[4-(trifluoromethyl)phenyl]propylidene] hydrazino]phenyl]methyleneamino] thiourea], the percent effect (mortality or growth inhibition) at 200 ppm with Diabrotica balteata and in the data set with Plutella xylostella was not below 80% each time. Moreover, in the data set on Spodoptera littoralis (setting [1]), the mortality (as a rule, the percentage killed) at 200 ppm was not below 80%.

With `C/C(=N\Oc1ccc(/C=N/NC(=O)Nc2c(C)cccc2C)cc1)c1ccc(OC(F)(F)F)cc1` [Compound 7, 1-(2,6-dimethylphenyl)-3-[[4-[1-[4-(trifluoromethoxy)phenyl]ethylidene-amino]oxyphenyl]methylene-amino]urea], the percent effect (mortality or growth inhibition) at 200 ppm with Diabrotica balteata and in the data set with Plutella xylostella was not below 80% throughout. In addition, in the data set on Spodoptera littoralis (setting [1]), the mortality at 200 ppm was not below 80%.

With `C/C(=N\Oc1ccc(/C=N/OC(=O)Nc2c(C)cccc2C)cc1)c1ccc(OC(F)(F)F)cc1` [Compound 2, [[4-[1-[4-(trifluoromethoxy)phenyl]ethylidene-amino]oxyphenyl]methyleneamino] N-(2,6-dimethylphenyl) carbamate], the percent control (mortality or growth inhibition) at 200 ppm with Diabrotica balteata and with Plutella xylostella was not below 80% in each case. The mortality at 200 ppm in the data set with Spodoptera littoralis is not below 80%.

`C/C(=N\Nc1ccc(/C=N/NC(=O)Nc2c(C)cccc2C)cc1)c1ccc(C(F)(F)F)cc1` [Compound 21, 1-(2,6-dimethylphenyl)-3-[(E)-[4-[(2E)-2-[1-[4-(trifluoromethyl)phenyl]ethylidene] hydrazino]phenyl]methyleneamino] urea]: the percent effect (mortality or growth inhibition) at 200 ppm in the data set with Diabrotica balteata and in the data set on Plutella xylostella was not below 80% in each case. Further, the mortality at 200 ppm with Spodoptera littoralis (setting [1]) is not below 80%.

Turning to `C/C(=N\Nc1ccc(/C=N/NC(=S)Nc2ccccc2C(C)C)cc1)c1ccc(C(F)(F)F)cc1` [Compound 20, 1-(2-isopropylphenyl)-3-[(E)-[4-[(2E)-2-[1-[4-(trifluoromethyl)phenyl]ethylidene] hydrazino]phenyl]methyleneamino] thiourea], the percent effect (mortality or growth inhibition) at 200 ppm with Diabrotica balteata and in the data set on Plutella xylostella was not below 80% each time. In addition, the mortality at 200 ppm with Spodoptera littoralis (setting [1]) was not below 80%.

Turning to `C/C(=N\Nc1ccc(/C=N/NC(=S)Nc2c(C)cccc2C)cc1)c1ccc(OC(F)(F)F)cc1` [Compound 3, 1-(2,6-dimethylphenyl)-3-[[4-[2-[1-[4-(trifluoromethoxy)phenyl]ethylidene] hydrazino]phenyl]methyleneamino] thiourea], the percent effect (mortality or growth inhibition) at 200 ppm in the data set with Diabrotica balteata and in the data set with Plutella xylostella was not below 80% throughout. For the same compound, in the data set on Spodoptera littoralis (setting [1]), the mortality at 200 ppm is not below 80%.

Turning to `CC(C)c1ccccc1NC(=S)N/N=C/c1ccc(O/N=C2\CCc3cc(OC(F)(F)F)ccc32)cc1` [Compound 5, 1-(2-isopropylphenyl)-3-[[4-[[5-(trifluoromethoxy)indan-1-ylidene]amino]oxyphenyl]methylene-amino]thiourea], the percent effect (mortality or growth inhibition) at 200 ppm in the data set on Diabrotica balteata and with Plutella xylostella was not below 80% throughout. For the same compound, in the data set with Spodoptera littoralis (setting [1]), the mortality at 200 ppm is not below 80%.
